Three compounds from article PMC9322761, “Design, Synthesis and Biological Characterization of Histone Deacetylase 8 (HDAC8) Proteolysis Targeting Chimeras (PROTACs) with Anti-Neuroblastoma Activity” (International Journal of Molecular Sciences, 2022) can be followed below.

The structures appear in SMILES notation.

One assay concerns the target T1, HDAC6 (Homo sapiens, UniProt Q9UBN7).
T1 sequence (Q9UBN7 1-1215): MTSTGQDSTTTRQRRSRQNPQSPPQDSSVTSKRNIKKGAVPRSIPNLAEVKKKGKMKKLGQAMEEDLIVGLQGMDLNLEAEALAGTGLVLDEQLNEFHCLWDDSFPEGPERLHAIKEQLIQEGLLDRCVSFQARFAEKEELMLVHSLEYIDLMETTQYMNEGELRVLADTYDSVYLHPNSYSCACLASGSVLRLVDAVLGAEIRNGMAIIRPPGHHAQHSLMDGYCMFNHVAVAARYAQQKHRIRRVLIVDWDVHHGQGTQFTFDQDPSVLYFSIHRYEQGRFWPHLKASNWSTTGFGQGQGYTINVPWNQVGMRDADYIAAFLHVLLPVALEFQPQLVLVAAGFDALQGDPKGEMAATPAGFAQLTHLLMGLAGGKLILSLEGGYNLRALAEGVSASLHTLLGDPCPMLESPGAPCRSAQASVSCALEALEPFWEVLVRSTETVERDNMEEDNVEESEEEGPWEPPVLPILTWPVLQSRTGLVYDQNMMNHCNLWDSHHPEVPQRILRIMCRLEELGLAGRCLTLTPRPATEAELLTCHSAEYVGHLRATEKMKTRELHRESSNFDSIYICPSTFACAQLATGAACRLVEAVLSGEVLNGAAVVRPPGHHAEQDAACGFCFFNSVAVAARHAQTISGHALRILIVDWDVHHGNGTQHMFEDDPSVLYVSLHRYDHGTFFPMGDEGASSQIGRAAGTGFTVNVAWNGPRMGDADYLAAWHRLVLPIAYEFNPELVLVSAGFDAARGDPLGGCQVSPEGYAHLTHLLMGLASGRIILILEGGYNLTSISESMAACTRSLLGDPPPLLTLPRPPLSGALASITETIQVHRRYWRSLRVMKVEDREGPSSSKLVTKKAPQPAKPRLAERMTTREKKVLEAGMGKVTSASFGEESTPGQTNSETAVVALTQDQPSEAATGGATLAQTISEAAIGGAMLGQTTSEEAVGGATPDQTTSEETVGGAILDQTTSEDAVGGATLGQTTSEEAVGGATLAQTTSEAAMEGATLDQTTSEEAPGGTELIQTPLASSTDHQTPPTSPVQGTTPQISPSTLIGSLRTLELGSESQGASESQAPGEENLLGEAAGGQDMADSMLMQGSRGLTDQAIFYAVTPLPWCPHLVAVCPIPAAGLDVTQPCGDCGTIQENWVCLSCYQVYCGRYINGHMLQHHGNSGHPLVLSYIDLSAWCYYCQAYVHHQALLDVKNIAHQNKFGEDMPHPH
Nature of the assay: In vitro HDAC inhibitory activity assay, recombinant HDAC6 (fluorogenic substrate ZMAL). The class given is biochemical. Further details: purchased BPS Biosciences. On the procedure:
(§1) The in vitro testing on recombinant HDACs was performed as previously described. Recombinant human HDAC1 and −6 were purchased from BPS Biosciences. The enzyme inhibition was determined by using a reported homogenous fluorescence assay. […] Fluorescence intensity was measured at an excitation wavelength of 390 nm and an emission wavelength of 460 nm in a microtiter plate reader (BMG Polarstar).
(§2) Inhibition was measured at increasing concentration and IC50 was calculated by nonlinear regression with Origin 9.0G software.

The next assay concerns the target HDAC1 (Homo sapiens, UniProt Q13547). Nature of the assay: In vitro HDAC inhibitory activity assay, recombinant HDAC1 (fluorogenic substrate ZMAL). Also noted: purchased BPS Biosciences. The class given is biochemical. On the procedure: as §1, §2
For another assay, the system named is SK-N-BE(2)-C cells. Nature of the assay: Colony formation assay in neuroblastoma cells. Conditions: 5 and 10 μM, treatment 96 h, then 6 days without treatment. The class given is cell-based, human.
A further assay concerns the target T2, HDAC8 (Homo sapiens, UniProt Q9BY41).
T2 sequence (Q9BY41 1-377): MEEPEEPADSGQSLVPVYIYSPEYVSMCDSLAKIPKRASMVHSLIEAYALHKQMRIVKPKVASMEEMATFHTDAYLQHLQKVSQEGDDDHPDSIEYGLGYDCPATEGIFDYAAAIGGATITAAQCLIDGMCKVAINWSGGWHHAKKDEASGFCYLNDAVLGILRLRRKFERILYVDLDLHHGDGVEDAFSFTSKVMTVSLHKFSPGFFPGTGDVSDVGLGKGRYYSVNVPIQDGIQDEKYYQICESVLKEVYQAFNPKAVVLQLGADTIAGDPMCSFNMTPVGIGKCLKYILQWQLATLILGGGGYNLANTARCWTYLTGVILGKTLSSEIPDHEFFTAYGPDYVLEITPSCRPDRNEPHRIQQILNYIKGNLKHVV
The experiment in a line: In vitro HDAC8 activity assay (Fluor de Lys-HDAC8). The class given is biochemical. Also noted: made in house. Particulars: for IC50: Table 1, PROTACs. The method, then: Recombinant hHDAC8 was produced by Romier et al. in Strasbourg. The HDAC8 activity assays were performed according to the commercial HDAC8 Fluorometric Drug Discovery Kit (Fluor de Lys(R)-HDAC8, BML-KI178) corresponding to the instructions of the manufacturer. As substrate a tetrapeptide connected to aminomethylcoumarin (AMC) H2N-Arg- His-Lys(Ac)-Lys(Ac)-AMC was synthesized as previously described. The enzyme was incubated for 90 min at 37 °C, with a substrate concentration of 50 µM and increasing concentrations of inhibitors. The stop-solution-containing inhibitor was added to stop the hHDAC8 activity, and Trypsin was added to release the AMC. The solution was incubated for 20 min at 37 °C to develop the assay.
as §2

HDAC1, sequence (Q13547 whole entry): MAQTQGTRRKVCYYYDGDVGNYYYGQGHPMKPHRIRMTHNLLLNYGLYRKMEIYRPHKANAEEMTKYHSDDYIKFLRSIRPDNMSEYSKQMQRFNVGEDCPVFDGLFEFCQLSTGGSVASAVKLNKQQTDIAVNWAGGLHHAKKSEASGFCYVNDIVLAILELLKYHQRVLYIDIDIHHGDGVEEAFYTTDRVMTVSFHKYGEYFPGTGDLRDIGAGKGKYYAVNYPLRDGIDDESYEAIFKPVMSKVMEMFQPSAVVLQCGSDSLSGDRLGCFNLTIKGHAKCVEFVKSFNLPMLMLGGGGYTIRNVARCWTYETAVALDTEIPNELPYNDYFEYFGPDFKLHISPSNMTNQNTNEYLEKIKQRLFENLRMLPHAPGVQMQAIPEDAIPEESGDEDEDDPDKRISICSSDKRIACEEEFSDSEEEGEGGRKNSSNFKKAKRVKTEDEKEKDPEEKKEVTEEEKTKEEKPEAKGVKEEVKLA

What is called IC50 is the concentration that gives 50% inhibition. As to `COc1ccc(C(=O)NO)cc1NC(=O)c1ccc(NC(=O)CCCCCCCNc2cccc3c2C(=O)N(C2CCC(=O)NC2=O)C3=O)cc1` (stereo not drawn) [CRBN_1b], the IC50 at HDAC6 is 560 ± 100 nM; on HDAC1, over 20 µM; against HDAC8, 810 ± 170 nM. Further, the “Effect on colony formation” value with SK-N-BE(2)-C cells is given as “significantly decreased the ability to form colonies”. Moreover, the “SI (HDAC6/HDAC8)” value at HDAC8 (selectivity index, HDAC6 over HDAC8) stood at 0.7.
Regarding `COC(=O)c1ccc(C)c(NCc2ccc(OCc3cn(CCCCCC(=O)Nc4cccc5c4C(=O)N(C4CCC(=O)NC4=O)C5=O)nn3)cc2)c1` (stereo not drawn) [33a], the “HDAC6 inhibitory activity” value at HDAC6 (negative control) is given as “did not demonstrate a strong inhibitory activity”. Besides, the “HDAC1 inhibitory activity” value on HDAC1 (negative control) is on record as “did not demonstrate a strong inhibitory activity”. In the assay on SK-N-BE(2)-C cells, the “Effect on colony formation” value was “inactive”. The “HDAC8 inhibitory activity” value at HDAC8 (negative control) was “did not demonstrate a strong inhibitory activity”.
With `O=C(COc1ccc(CNc2cc(C(=O)NO)ccc2Cl)cc1)NCCCCCNC(=O)CC12CC3CC(CC(C3)C1)C2` [HyT_1p], the inhibition at 1 µM was determined as 12.4% at HDAC6 (1 µM, read-out: HDAC6 % inhib. at given conc.) and 2.3% at HDAC1 (1 µM, read-out: HDAC1 % inhib. at given conc.). The inhibition at 10 µM on HDAC6 (10 µM, read-out: HDAC6 % inhib. at given conc.) stood at 72.8%; on HDAC1 (10 µM, read-out: HDAC1 % inhib. at given conc.) it was 40%. The “Effect on colony formation” value in the assay with SK-N-BE(2)-C cells was “significantly decreased the ability to form colonies”. At HDAC8, this compound registered an IC50 of 750 ± 90 nM.
